Assay results as given in the supplement of paper PMC4862054.

Tests used:
Experiment in all cases: normalised viability (% of control), CellTiter-Blue; higher = more viable cells (about 100 = DMSO control)
Conditions in all cases: incubation time: 72 h
HDQ-P1 [1] = test system: HDQ-P1
Description: (§1)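 DSRT, CellTiter-Blue viability, 72 h incubation. Signal is normalised to DMSO and benzethonium chloride controls. Value is the normalised response at dose 3.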

CAL-85-1 [2] = test system: CAL-85-1
Description: as §1

Hs578T [3] = test system: Hs578T
Description: as §1

CAL-148 [4] = test system: CAL-148
Description: as §1

MDA-MB-468 [5] = test system: MDA-MB-468
Description: as §1

CAL-120 [6] = test system: CAL-120
Description: as §1

MFM-223 [7] = test system: MFM-223
Description: as §1

CAL-51 = test system: CAL-51
Description: as §1

SK-BR-3 [8] = test system: SK-BR-3
Description: as §1

DU-4475 = test system: DU-4475
Description: as §1

HCC1599 [9] = test system: HCC1599
Description: as §1

HCC1937 = test system: HCC1937
Description: as §1

BT-474 = test system: BT-474
Description: as §1

MDA-MB-231 [10] = test system: MDA-MB-231
Description: as §1

HCC1143 [11] = test system: HCC1143
Description: as §1

MDA-MB-436 [12] = test system: MDA-MB-436
Description: as §1

MDA-MB-453 = test system: MDA-MB-453
Description: as §1

BT-549 = test system: BT-549
Description: as §1

HDQ-P1 [13] = test system: HDQ-P1; remark: listed apart in the source
In short: (§2)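 Seeded at 20 µl suspension per well onto compound-loaded 384-well plates, breast cancer cell lines were incubated 72 h. CellTiter-Blue fluorescence at 560/590 nm was then read, with each plate normalised to vehicle (100) and a positive kill control (0). Normalised viability is reported at a single listed concentration of the series.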

CAL-85-1 [14] = test system: CAL-85-1; remark: listed apart in the source
In short: as §2

Hs578T [15] = test system: Hs578T; remark: listed apart in the source
In short: as §2

CAL-148 [16] = test system: CAL-148; remark: listed apart in the source
In short: as §2

MDA-MB-468 [17] = test system: MDA-MB-468; remark: listed apart in the source
In short: as §2

CAL-120 [18] = test system: CAL-120; remark: listed apart in the source
In short: as §2

MFM-223 [19] = test system: MFM-223; remark: listed apart in the source
In short: as §2

SK-BR-3 [20] = test system: SK-BR-3; remark: listed apart in the source
In short: as §2

HCC1599 [21] = test system: HCC1599; remark: listed apart in the source
In short: as §2

MDA-MB-231 [22] = test system: MDA-MB-231; remark: listed apart in the source
In short: as §2

HCC1143 [23] = test system: HCC1143; remark: listed apart in the source
In short: as §2

MDA-MB-436 [24] = test system: MDA-MB-436; remark: listed apart in the source
In short: as §2

O=C(c1ccc(OCCN2CCCCC2)cc1)c1c(-c2ccc(O)cc2)sc2cc(O)ccc12 [Raloxifene]
Conditions | normalised viability [%]
BT-474, 100 nM | 107
BT-549, 100 nM | 87.2
CAL-51, 10 nM | 99.6
CAL-85-1 [2], 10 nM | 101
CAL-85-1 [14], 3 nM | 100
CAL-85-1 [14], 30 nM | 94.5
CAL-85-1 [14], 100 nM | 98
CAL-120 [6], 100 nM | 102
CAL-120 [18], 10 nM | 99.6
CAL-120 [18], 1000 nM | 98.2
CAL-120 [18], 10000 nM | 91.8
CAL-148 [4], 10 nM | 100
CAL-148 [16], 3 nM | 95.2
CAL-148 [16], 30 nM | 98.6
CAL-148 [16], 100 nM | 93.8
DU-4475, 10 nM | 105
HCC1143 [11], 100 nM | 109
HCC1143 [23], 10 nM | 114
HCC1143 [23], 1000 nM | 98.7
HCC1143 [23], 10000 nM | 96.8
HCC1599 [9], 100 nM | 104
HCC1599 [21], 10 nM | 95.7
HCC1599 [21], 1000 nM | 103
HCC1599 [21], 10000 nM | 102
HCC1937, 100 nM | 110
HDQ-P1 [1], 10 nM | 90.2
HDQ-P1 [13], 3 nM | 90.2
HDQ-P1 [13], 30 nM | 97.5
HDQ-P1 [13], 100 nM | 107
Hs578T [3], 100 nM | 104
Hs578T [15], 10 nM | 112
Hs578T [15], 1000 nM | 102
Hs578T [15], 10000 nM | 92.8
MDA-MB-231 [10], 100 nM | 89.3
MDA-MB-231 [22], 10 nM | 85.3
MDA-MB-231 [22], 1000 nM | 89.3
MDA-MB-231 [22], 10000 nM | 102
MDA-MB-436 [12], 100 nM | 107
MDA-MB-436 [24], 10 nM | 104
MDA-MB-436 [24], 1000 nM | 86.3
MDA-MB-436 [24], 10000 nM | 76.2
MDA-MB-453, 10 nM | 107
MDA-MB-468 [5], 100 nM | 105
MDA-MB-468 [17], 10 nM | 98.6
MDA-MB-468 [17], 1000 nM | 106
MDA-MB-468 [17], 10000 nM | 78.2
MFM-223 [7], 100 nM | 84.3
MFM-223 [19], 10 nM | 99.8
MFM-223 [19], 1000 nM | 86.2
MFM-223 [19], 10000 nM | 80.6
SK-BR-3 [8], 100 nM | 115
SK-BR-3 [20], 10 nM | 94
SK-BR-3 [20], 1000 nM | 94.7
SK-BR-3 [20], 10000 nM | 103

CCS(=O)(=O)c1cccc(-c2cc(C(=O)NC3CCN(C)CC3)c(C)c3[nH]c4ncc(C)cc4c23)c1 [TAK-901]
Conditions | normalised viability [%]
BT-474, 10 nM | 113
BT-549, 10 nM | 114
CAL-51, 1 nM | 91.7
CAL-85-1 [2], 1 nM | 98
CAL-85-1 [14], 0.3 nM | 89.9
CAL-85-1 [14], 3 nM | 86.3
CAL-85-1 [14], 10 nM | 91.2
CAL-120 [6], 10 nM | 86.8
CAL-120 [18], 1 nM | 84.4
CAL-120 [18], 100 nM | 50.5
CAL-120 [18], 1000 nM | 13.2
CAL-148 [4], 1 nM | 113
CAL-148 [16], 0.3 nM | 90.1
CAL-148 [16], 3 nM | 95.3
CAL-148 [16], 10 nM | 101
DU-4475, 1 nM | 97
HCC1143 [11], 10 nM | 87.6
HCC1143 [23], 1 nM | 87.3
HCC1143 [23], 100 nM | 64.2
HCC1143 [23], 1000 nM | 27.1
HCC1599 [9], 10 nM | 103
HCC1599 [21], 1 nM | 93.6
HCC1599 [21], 100 nM | 83
HCC1599 [21], 1000 nM | 61.4
HCC1937, 10 nM | 120
HDQ-P1 [1], 1 nM | 114
HDQ-P1 [13], 0.3 nM | 111
HDQ-P1 [13], 3 nM | 109
HDQ-P1 [13], 10 nM | 113
Hs578T [3], 10 nM | 131
Hs578T [15], 1 nM | 124
Hs578T [15], 100 nM | 78
Hs578T [15], 1000 nM | 40.5
MDA-MB-231 [10], 10 nM | 103
MDA-MB-231 [22], 1 nM | 99.4
MDA-MB-231 [22], 100 nM | 64.9
MDA-MB-231 [22], 1000 nM | 20.6
MDA-MB-436 [12], 10 nM | 101
MDA-MB-436 [24], 1 nM | 116
MDA-MB-436 [24], 100 nM | 96.1
MDA-MB-436 [24], 1000 nM | 70.6
MDA-MB-453, 1 nM | 99.1
MDA-MB-468 [5], 10 nM | 105
MDA-MB-468 [17], 1 nM | 112
MDA-MB-468 [17], 100 nM | 33.1
MDA-MB-468 [17], 1000 nM | 63.6
MFM-223 [7], 10 nM | 81.8
MFM-223 [19], 1 nM | 96
MFM-223 [19], 100 nM | 55
MFM-223 [19], 1000 nM | 34
SK-BR-3 [8], 10 nM | 97.3
SK-BR-3 [20], 1 nM | 98.9
SK-BR-3 [20], 100 nM | 93.8
SK-BR-3 [20], 1000 nM | 52

C#Cc1cccc(Nc2ncnc3cc(OC)c(OCCCCCCC(=O)NO)cc23)c1 [CUDC-101]
Conditions | normalised viability [%]
BT-474, 100 nM | 89.2
BT-549, 100 nM | 97.6
CAL-51, 10 nM | 113
CAL-85-1 [2], 10 nM | 93
CAL-85-1 [14], 3 nM | 89
CAL-85-1 [14], 30 nM | 75.5
CAL-85-1 [14], 100 nM | 91
CAL-120 [6], 100 nM | 67.1
CAL-120 [18], 10 nM | 82.3
CAL-120 [18], 1000 nM | 38.3
CAL-120 [18], 10000 nM | 9.22
CAL-148 [4], 10 nM | 83.6
CAL-148 [16], 3 nM | 90.4
CAL-148 [16], 30 nM | 89.8
CAL-148 [16], 100 nM | 85.2
DU-4475, 10 nM | 101
HCC1143 [11], 100 nM | 79.7
HCC1143 [23], 10 nM | 78.3
HCC1143 [23], 1000 nM | 32.8
HCC1143 [23], 10000 nM | 11.6
HCC1599 [9], 100 nM | 83.4
HCC1599 [21], 10 nM | 78.8
HCC1599 [21], 1000 nM | 28.6
HCC1599 [21], 10000 nM | 16
HCC1937, 100 nM | 88.8
HDQ-P1 [1], 10 nM | 86.3
HDQ-P1 [13], 3 nM | 98.9
HDQ-P1 [13], 30 nM | 93.3
HDQ-P1 [13], 100 nM | 71.5
Hs578T [3], 100 nM | 70.2
Hs578T [15], 10 nM | 91.3
Hs578T [15], 1000 nM | 38.2
Hs578T [15], 10000 nM | 5.55
MDA-MB-231 [10], 100 nM | 91.2
MDA-MB-231 [22], 10 nM | 87.8
MDA-MB-231 [22], 1000 nM | 46
MDA-MB-231 [22], 10000 nM | 3.42
MDA-MB-436 [12], 100 nM | 117
MDA-MB-436 [24], 10 nM | 94.7
MDA-MB-436 [24], 1000 nM | 53.9
MDA-MB-436 [24], 10000 nM | 12
MDA-MB-453, 10 nM | 87.4
MDA-MB-468 [5], 100 nM | 66.2
MDA-MB-468 [17], 10 nM | 100
MDA-MB-468 [17], 1000 nM | 25.5
MDA-MB-468 [17], 10000 nM | 8.4
MFM-223 [7], 100 nM | 63.3
MFM-223 [19], 10 nM | 75.1
MFM-223 [19], 1000 nM | 20.4
MFM-223 [19], 10000 nM | 2.11
SK-BR-3 [8], 100 nM | 58.9
SK-BR-3 [20], 10 nM | 75.5
SK-BR-3 [20], 1000 nM | 16.8
SK-BR-3 [20], 10000 nM | 2.82
